Data taken from ChEMBL document CHEMBL2074295, “Molecular identification of the corticosterone-sensitive extraneuronal catecholamine transporter” (Nat Neurosci, 1998).

T1: Solute carrier family 22 member 3 (Homo sapiens, UniProt O75751)
T1 sequence (O75751 whole entry): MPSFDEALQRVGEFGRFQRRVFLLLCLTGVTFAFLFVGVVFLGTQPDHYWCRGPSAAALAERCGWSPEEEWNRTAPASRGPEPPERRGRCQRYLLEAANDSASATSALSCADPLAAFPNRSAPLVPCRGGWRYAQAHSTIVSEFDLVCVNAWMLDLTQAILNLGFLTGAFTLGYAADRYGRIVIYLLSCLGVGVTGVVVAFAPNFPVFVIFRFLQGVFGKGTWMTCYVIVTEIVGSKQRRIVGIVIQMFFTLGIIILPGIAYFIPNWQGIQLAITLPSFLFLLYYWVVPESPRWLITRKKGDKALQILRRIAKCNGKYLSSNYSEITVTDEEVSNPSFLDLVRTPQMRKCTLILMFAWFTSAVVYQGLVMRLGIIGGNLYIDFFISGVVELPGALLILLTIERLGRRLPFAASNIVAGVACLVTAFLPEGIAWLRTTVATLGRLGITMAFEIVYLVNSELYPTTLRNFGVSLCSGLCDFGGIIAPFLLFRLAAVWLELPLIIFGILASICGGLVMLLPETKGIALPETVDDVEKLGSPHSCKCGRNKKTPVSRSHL

B1: Solute carrier family 22 member 3 (Homo sapiens) (protein)
chain: T1 sequence (O75751 whole entry)

Columns and labels:
Type in all cases: functional, cell-based
[1] = target: T1, Solute carrier family 22 member 3; experiment: (§1) TP_TRANSPORTER: uptake in OCT3-expressing HEK293 cells
[2] = target: T1, Solute carrier family 22 member 3; experiment: TP_TRANSPORTER: inhibition of MPP+ uptake in OCT3-expressing HEK293 cells
[3] = substrate: NC[C@H](O)c1ccc(O)c(O)c1; experiment: as §1

| Molecule | Activity [1] | also measured |
| --- | --- | --- |
| C[n+]1ccc(-c2ccccc2)cc1 | substrate [+] |  |
| Nc1ncnc2c1ncn2CCOCP(=O)(O)O [ADEFOVIR] | substrate [+] |  |
| COc1cc2c(c(OC)c1OC)-c1ccc(OC)c(=O)cc1[C@@H](NC(C)=O)CC2 [COLCHICINE] |  | Ki [2]: 120 nM |
| CC(C)N1/C(=C\c2cc[n+](C(C)C)c3ccccc23)C=Cc2ccccc21 [DISPROCYNIUM24] |  | Ki [2]: 15 nM |
| NCCc1c[nH]c2ccc(O)cc12 [SEROTONIN] | substrate [+] |  |
| NCCc1ccc(O)cc1 [TYRAMINE] | substrate [+] |  |
| B1 |  | Km [3]: 510 µM |
